Experiments:
[1] = biological target: T1, Solute carrier organic anion transporter family member 1B1 (Homo sapiens, UniProt Q9Y6L6); conditions: chinese hamster, cho, 10 µM
T1 sequence (Q9Y6L6 whole entry): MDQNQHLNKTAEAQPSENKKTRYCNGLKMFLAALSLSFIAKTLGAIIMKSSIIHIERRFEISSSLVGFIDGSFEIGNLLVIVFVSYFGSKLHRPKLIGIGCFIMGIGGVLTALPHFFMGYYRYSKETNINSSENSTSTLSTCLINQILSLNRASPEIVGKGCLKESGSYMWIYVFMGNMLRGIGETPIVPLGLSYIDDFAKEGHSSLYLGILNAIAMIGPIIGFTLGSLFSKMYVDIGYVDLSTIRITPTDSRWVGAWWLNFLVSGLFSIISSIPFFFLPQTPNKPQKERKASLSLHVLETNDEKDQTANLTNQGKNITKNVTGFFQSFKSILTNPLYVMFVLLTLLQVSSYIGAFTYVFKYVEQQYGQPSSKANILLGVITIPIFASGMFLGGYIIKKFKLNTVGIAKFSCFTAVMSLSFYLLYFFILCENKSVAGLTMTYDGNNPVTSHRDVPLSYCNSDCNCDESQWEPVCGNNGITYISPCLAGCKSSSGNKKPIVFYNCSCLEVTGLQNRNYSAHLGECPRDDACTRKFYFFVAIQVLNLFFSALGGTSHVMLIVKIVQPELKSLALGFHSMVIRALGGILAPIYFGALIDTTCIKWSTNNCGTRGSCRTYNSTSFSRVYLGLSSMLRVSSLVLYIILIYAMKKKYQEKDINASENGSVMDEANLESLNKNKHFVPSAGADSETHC

[2] = biological target: T2, Solute carrier organic anion transporter family member 1B3 (Homo sapiens, UniProt Q9NPD5); conditions: chinese hamster, cho, 10 µM
T2 sequence (Q9NPD5 whole entry): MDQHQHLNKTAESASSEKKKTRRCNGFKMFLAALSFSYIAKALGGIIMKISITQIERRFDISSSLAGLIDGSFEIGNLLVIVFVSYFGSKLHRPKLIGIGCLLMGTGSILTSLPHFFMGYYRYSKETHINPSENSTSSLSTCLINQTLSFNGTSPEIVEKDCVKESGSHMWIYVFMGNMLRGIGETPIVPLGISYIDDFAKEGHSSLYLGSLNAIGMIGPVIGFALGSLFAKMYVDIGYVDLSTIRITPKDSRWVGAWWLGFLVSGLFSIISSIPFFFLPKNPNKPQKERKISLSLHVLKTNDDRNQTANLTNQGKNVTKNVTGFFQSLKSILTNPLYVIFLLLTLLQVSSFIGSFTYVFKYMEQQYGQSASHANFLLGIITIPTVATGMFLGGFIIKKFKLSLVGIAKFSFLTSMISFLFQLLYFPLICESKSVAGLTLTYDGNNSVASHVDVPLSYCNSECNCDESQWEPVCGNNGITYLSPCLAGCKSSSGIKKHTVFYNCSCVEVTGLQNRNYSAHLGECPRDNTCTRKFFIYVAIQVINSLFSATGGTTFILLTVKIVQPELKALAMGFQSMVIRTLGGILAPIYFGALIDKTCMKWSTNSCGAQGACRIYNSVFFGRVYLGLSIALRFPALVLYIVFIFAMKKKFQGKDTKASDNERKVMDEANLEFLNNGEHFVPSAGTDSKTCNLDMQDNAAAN

SMILES | residual activity [1] [%] | residual activity [2] [%]
COc1ccc2c(c1)[C@@]1(C)CC[C@@H](O)C[C@@H]1CC2 [12-METHOXY-4,4-BISNOR-5alpha-8,11,13-PODOCARPATRIEN-3-OL] | 95.25 | 91.61
COc1ccc2[nH]cc(CCN)c2c1 [5-METHOXYTRYPTAMINE] | 59.83 | 73.24
CC(=O)OCC(=O)[C@@]1(O)[C@H](OC(C)=O)C[C@H]2[C@@H]3CCC4=CC(=O)C=C[C@]4(C)[C@@]3(F)[C@@H](O)C[C@@]21C [TRIAMCINOLONE DIACETATE] | 98.08 | 104.9
CC(CCc1ccccc1)NCC(O)c1ccc(O)c(C(N)=O)c1.Cl (stereo not given) [LABETALOL HYDROCHLORIDE] | 93.55 | 101.4
CC(=O)Oc1ccc(/C=C/c2cc(OC(C)=O)cc(OC(C)=O)c2)cc1 [TRIACETYLRESVERATROL] | 160.6 | 143.6
N=C(NCCC[C@H](N)C(=O)O)N[N+](=O)[O-] [NITROARGININE] | 113.4 | 113.8
C[C@H]1[C@H](C)CC[C@]2(CO)CC[C@]3(C)C(=CC[C@@H]4[C@@]5(C)CC[C@H](O)C(C)(C)[C@@H]5CC[C@]43C)[C@H]12 [UVAOL] | 121.5 | 107.5
O=c1c(O)c(-c2ccc(O)cc2O)oc2cc(O)cc(O)c12 [MORIN] | 24.17 | 45.37
O=C(O)CCCOc1ccc(Cl)cc1Cl | 123.3 | 112
CC(C)(Oc1ccc(CCNC(=O)c2ccc(Cl)cc2)cc1)C(=O)O [BEZAFIBRATE] | 72.82 | 74.47
Nc1nc(/C(=C/CC(=O)O)C(=O)N[C@@H]2C(=O)N3C(C(=O)O)=CCS[C@H]23)cs1 [CEFTIBUTEN] | 90.54 | 84.47
C[C@@]12C(=O)OC(=O)[C@]1(C)[C@H]1CC[C@@H]2O1 [CANTHARIDIN] | 102.5 | 105.7
COc1ccc(-c2cc(=O)c3c(OC(C)=O)cc(OC(C)=O)cc3o2)cc1 [ACACETIN DIACETATE] | 133.5 | 127.6
CCN1CCCC1CNC(=O)c1cc(S(N)(=O)=O)ccc1OC (stereo not given) [SULPIRIDE] | 121.8 | 106.2
COc1ccc2ccc(=O)oc2c1CC=C(C)C [OSTHOLE] | 227.1 | 121.3
COc1ccc2cc([C@H](C)CO)ccc2c1 [NAPROXOL] | 241.9 | 102.8
CCCCNc1ccc(C(=O)OCCN(C)C)cc1.Cl [TETRACAINE HYDROCHLORIDE] | 61.91 | 88.3
Oc1cc(O)c2c(c1)O[C@H](c1ccc(O)c(O)c1)[C@@H](O)C2 [CIANIDANOL] | 72.87 | 92.34
O=C(C1CCCCC1)N1CC(=O)N2CCc3ccccc3C2C1 (stereo not given) [PRAZIQUANTEL] | 162.2 | 125.5
CC1Cc2ccccc2N1NC(=O)c1ccc(Cl)c(S(N)(=O)=O)c1 (stereo not given) [INDAPAMIDE] | 80.06 | 97.5
COc1ccc(C2C(=O)c3ccccc3C2=O)cc1 [ANISINDIONE] | 74.63 | 75.63
CC(=O)O[C@@H]1C=C[C@]2(C)C(C[C@@H](OC(C)=O)[C@]3(C)C4=CC(=O)O[C@H](c5ccoc5)[C@@]4(C)CCC23)C1(C)C (stereo not given in full) [DEOXYGEDUNOL ACETATE] | 23.25 | 49.18
Cc1cc(O)c2c(c1)C(=O)c1cccc(O)c1C2=O [CHRYSOPHANOL] | 128.6 | 93.35
Cl.N/C(=N\C(=O)c1nc(Cl)c(N)nc1N)NCc1ccccc1 [BENZAMIL HYDROCHLORIDE] | 93.84 | 105
O=c1oc2cc(O)ccc2s1 [TIOXOLONE] | 67.3 | 76.34

SMILES | residual activity [1] [%] | residual activity [2] [%]
Cl.O=C(O)C1=CCCNC1 [GUVACINE HYDROCHLORIDE] | 115 | 108.7
CC1(C)C[C@@H]2C(=O)CC[C@H]3O[C@]3(C)CC[C@H]21 [KOBUSONE] | 64.48 | 84.64
Cc1ccc(C(=O)C(C)CN2CCCCC2)cc1.Cl (stereo not given) [TOLPERISONE HYDROCHLORIDE] | 96.3 | 112.7
Cc1c(NC(=O)c2cccnc2)c(=O)n(-c2ccccc2)n1C [NIFENAZONE] | 96.39 | 120.6
COc1cc2c(cc1OC)[C@@]13CCN4CC5=CCO[C@H]6CC(=O)N2[C@H]1[C@H]6[C@H]5C[C@H]43 [BRUCINE] | 117.9 | 229.8
CN(C)c1ccc(O)c2c1C[C@H]1C[C@H]3[C@H](N(C)C)C(O)=C(C(N)=O)C(=O)[C@@]3(O)C(O)=C1C2=O.Cl [MINOCYCLINE HYDROCHLORIDE] | 100.7 | 96.34
Oc1ccc2c(c1)O[C@H](c1ccc(O)c(O)c1)[C@@H](O)C2 [FISETINIDOL] | 74.52 | 95.23
CCCCOC(=O)c1ccc(N)cc1 [BUTAMBEN] | 159.2 | 124.9
CC[C@H]1CN2CC[C@H]1C[C@@H]2[C@@H](O)c1ccnc2ccc(OC)cc12 [HYDROQUINIDINE] | 77.48 | 96.11
NC(=O)c1ncn([C@@H]2O[C@H](CO)[C@@H](O)[C@H]2O)n1 [RIBAVIRIN] | 112.3 | 87.39
O=C1O[C@H]([C@@H](O)CO)C(O)=C1O [ASCORBIC ACID] | 84.23 | 96.05
O=C1c2ccccc2C(=O)c2c(O)c(O)cc(O)c21 [PURPURIN] | 100.1 | 98.68
O=c1ccc2ccc(O)c(O)c2o1 [DAPHNETIN] | 66.34 | 94.36
C[N+]1(C)C[C@@H](O)C[C@@H]1C(=O)[O-] [BETONICINE] | 89.8 | 105.3
CC(=O)c1c(O)cc(O)cc1O [2,4,6-TRIHYDROXYACETOPHENONE] | 72.12 | 92.98
NC(=O)N/N=C/c1ccc([N+](=O)[O-])o1 [NITROFURAZONE] | 93.46 | 98.78
Nc1ccc(S(=O)(=O)Nc2ncccn2)cc1 [SULFADIAZINE] | 90.81 | 74.08
Nc1ccc(C(=O)NCC(=O)O)cc1 [AMINOHIPPURIC ACID] | 82.43 | 94.72
NC(=O)c1ccc([N+](=O)[O-])cc1Cl [AKLOMIDE] | 115.5 | 100.2
COc1ccc(-c2cc(=O)c3cc(OC)ccc3o2)cc1 [6,4'-DIMETHOXYFLAVONE] | 34.44 | 110.4
C[C@@H]([C@H]1OC(C)(C)[C@@H](O)[C@H]1O)[C@@H]1CC[C@]2(C)C3=CC[C@H]4C(C)(C)C(=O)CC[C@]4(C)[C@H]3CC[C@@]12C | 77.68 | 98.76
CC(C)[C@H](N)C(=O)OCCOCn1cnc2c(=O)[nH]c(N)nc21.Cl [VALACYCLOVIR HYDROCHLORIDE] | 68.57 | 80.91
CC(C)=CCOc1c2occc2cc2ccc(=O)oc12 [PENTOSALEN] | 222.8 | 131.4
CC(=O)Nc1ccc(OCC(O)CNC(C)C)cc1 (stereo not given) [PRACTOLOL] | 107.1 | 99.03
COc1ccc2c(c1)O[C@@H]1COc3cc(OC)c(OC)cc3[C@@H]1C2=O [MUNDOSERONE] | 118.1 | 110.7

Source: ChEMBL document CHEMBL3039007, “Structure-based identification of OATP1B1/3 inhibitors” (Mol Pharmacol, 2013)
